Results taken from US20250375457A1, “TOPICAL PHARMACEUTICAL COMPOSITIONS AND USES THEREOF” (Shenzhen Pharmacin Co., Ltd., priority 2022, published 2025).
Like-named read-outs stand apart in the source and are kept apart here.

Legend:
[1] = cited from earlier work
British guinea pigs = format: in vivo; conditions: single skin application 0.2 mL/site, irradiation 10±1 J/cm^2, observed to 72 hours
Method: Phototoxicity of midostaurin cream was tested using British guinea pigs as a model. Male guinea pigs were randomly divided into groups and given a single skin application of physiological saline (negative control), 8-MOP (positive control), 1.0% midostaurin cream, and midostaurin cream blank matrix. The dose given is 0.2 mL/site and the administration site was fixed after the treatment was applied. After 0.5 hours, the administration site was irradiated by the sunlight simulator of Dr. Hönle AG (SOL500) to reach the specified irradiation amount of 10±1 J/cm^2. The irradiance was measured with a UV radiometer equipped with type UVA FO from Dr. Hönle AG. The first day of dosing is designated as day 1 of the trial (Day 1). After the irradiation, the skin irritation of the administration site was observed and scored at 1+0.5 hours, 24 hours, 48 hours and 72 hours, respectively.

[2] = Equilibrium solubility of midostaurin in different solvents (HPLC); format: physicochemical; conditions: thermodynamic from solid, 25° C., 24-72 hours
Method: Many different solvents were evaluated for their compatibility with midostaurin. […] Solubility was measured by HPLC.

[3] = Solubility of midostaurin in solubilizer-water mixture systems; format: physicochemical; conditions: solubilizer-water mixtures, aqueous with cosolvent or surfactant or cyclodextrin, thermodynamic from solid, Transcutol, Labrasol, Tween 80, Cremphor EL, Kolliphor HS15 at 10%, 20%, 30% v/v in water, 25° C.
Method: The solubility of midostaurin in a system with water and a solubilizer combined at a certain ratio was also evaluated. The method involves adding excess amorphous midostaurin powders into various concentrations of solubilizer and water systems and mixed for 24 hours at 25° C. with 600 rpm to ensure equilibrium was achieved. Solubilizers selected for this study include Transcutol, Labrasol, Tween 80, Cremphor EL, and Kolliphor HS15. Each solubilizer is mixed with water at 10%, 20%, and 30% v/v, respectively, to form a system where amorphous midostaurin power was dissolved.

[4] = Excipient compatibility study (impurities by HPLC); format: physicochemical; conditions: 1:200 (w/w), 60° C. for 10 days
Method: Midostaurin was mixed with many excipients used in topical formulations at 1:200 (w/w) and was placed at 60° C. for 10 days before testing.

Compound | log P [1] | phototoxicity (edema and erythema at administration site after UV irradiation) (British guinea pigs) | solubility ([2]; oil or lipid, corn oil, read-out: solubility in corn oil) | solubility ([2]; oil or lipid, soybean oil, read-out: solubility in soybean oil) | solubility ([2]; organic solvent or mixture, Labrasol, read-out: solubility in Labrasol) | solubility ([2]; organic solvent or mixture, Tween 80, read-out: solubility in Tween 80) | solubility ([2]; organic solvent or mixture, ethanol, read-out: solubility in ethanol) | solubility ([2]; organic solvent or mixture, glycerol, read-out: solubility in glycerol) | solubility at 24 h [3] | Impurity results (%) RRT 0.91 [4] | Impurity results (%) RRT 0.93 [4] | Impurity results (%) RRT 0.97 [4] | Impurity results (%) RRT 1.00 (midostaurin assay content) [4] | Impurity results (%) RRT 1.10 [4]
Oc1ccc(O)cc1 [Hydroquinone, hydroquinone] | 1.09 |  |  |  |  |  |  |  |  |  |  |  |  | 
COc1c2occc2cc2ccc(=O)oc12 [Lot 8-MOP] |  | Edema and erythema |  |  |  |  |  |  |  |  |  |  |  | 
CO[C@@H]1[C@H](N(C)C(=O)c2ccccc2)C[C@H]2O[C@]1(C)n1c3ccccc3c3c4c(c5c6ccccc6n2c5c31)C(=O)NC4 [Midostaurin, midostaurin] | 5.27 |  | < 10000 µg/mL | < 10000 µg/mL | > 50000 µg/mL | > 50000 µg/mL | < 10000 µg/mL | < 10000 µg/mL | < 10000 µg/mL | 0.07% | 0.11% | 0.12% | 99.64% | 0.06%
